Laboratory results: US6479520B1, “Method of treating a patient having precancerous lesions with phenyl pyridinone derivatives” (Cell Pathways, Inc., priority 1995, dated 2002)

SMILES | melting point
CCCOc1cc(SC)ccc1-c1ccc(C#N)c(=O)[nH]1 [2(a), 3-Cyano-6-(4-methylthio-2-propoxyphenyl)-2(1H)-pyridinone] | 196 to 197 °C
CCCOc1cc(OC)ccc1-c1ccc(C#N)c(=O)[nH]1 [9(a), 3-Cyano-6-(4-methoxy-2-propoxyphenyl)-2(1H)-pyridinone] | 183 to 183.5 °C
